Literature values as cited in patent US20250161386A1, “METHOD OF IMPROVING COGNITIVE FUNCTION IN ADULTS” (SEMPERA ORGANICS, INC., priority 2023, published 2025).

Assays:
[1] = rat, oral administration of H. erinaceus mycelia extract
[2] = test system: pro-brain-derived neurotrophic factor (BDNF); conditions: mice, after administration

Row | SMILES | time of peak plasma concentration post dose [1] | circulating pro-BDNF [2]
1 | CC(C)C1=C2[C@H]3CCC4=C(O)C(=O)[C@@]5(O)CO[C@H]6O[C@@H]([C@@H]4[C@]65O)[C@]3(C)CC[C@@]2(C)CC1 [erinacine S] | 270 min | –
2 | CCCCCCCCCCCCCCCC(=O)OCc1cc(OC)c(C/C=C(\C)CCC=C(C)C)c(O)c1C=O [hericene A] | – | increase
